Reference: a melting point compilation (Tetko et al.; mined from patent text by program, amines drawn as free bases though some values may be those of a salt)

Row | melting point [°C] | SMILES
1 | 153 to 155 | CCCCCNc1c(C(=O)OCC)cnc2cn[nH]c12
2 | 165 to 167 | Fc1cc(-c2ccc3nnn(Cc4ccc5ncccc5c4)c3n2)ccc1OC1CCOCC1
3 | 44 to 46 | C=Cc1c(C(C)C)nc(C(C)C)c(CCCCC)c1-c1ccc(F)cc1
4 | 242 | COc1cc(CC(=O)Nc2ccc(C3CN(C(C)=O)CC3C(=O)O)cc2)ccc1NC(=O)Nc1ccccc1C (stereo not drawn)
5 | > 270 | Nc1cc(-n2cc(C(=O)O)c(=O)c3c(O)c(F)c(F)cc32)c(F)cc1F
6 | 86 to 87 | COC1(C(=O)Nc2ccc(OC(C)C)c(Cl)c2)CC1
7 | 139 to 140 | COc1cc(C=C(N)C(C)=O)ccc1OCC(O)CNC(C)C (stereo not drawn)
8 | 171 to 173 | O=C(NC(=O)c1cc(F)c(Cl)nc1Cl)NC1CC1
9 | 140 to 142 | CC1(c2ccc(F)cc2)OC(C=Cc2ccc(C#N)cc2)=CC1=O (stereo not drawn)
10 | 244 to 263 | COc1cc(N(C)C)ccc1Nc1nc(Nc2ccc3c(c2)C(C)(C)CCC(=O)N3C)ncc1Cl
11 | > 250 | N#Cc1cnc2cc(F)c(O)cc2c1Cl
12 | 217 to 219 | O=C(c1cccc2cc[nH]c12)N1CCN(c2ccccc2)CC1
13 | 250 to 253 | O=c1[nH]ccc2c1ccc1[nH]cc(CCN(Cc3ccccc3)Cc3ccccc3)c12
14 | 148 to 150 | CC(=O)Nc1nc(CCc2ccc(CBr)cc2)cs1
15 | 138 to 140 | Nc1nc(SC2C=CCCC2)c2ncn(C3C=CC(CO)C3)c2n1 (stereo not drawn)
16 | 153 to 155 | O=C(Nc1ccc(-n2nc(C(F)(F)F)cc2-c2cccs2)cc1)c1ccncc1F
17 | 110 to 112 | Cc1ccc(-c2ccc(S(C)(=O)=O)cc2)n1-c1ccc(F)cc1
18 | 101 to 103 | COC(=O)C(Cl)Cc1ccc(-n2c(=O)cc(C(F)(F)F)n(C)c2=O)c(F)c1 (stereo not drawn)
19 | 114 | Cc1nc2cccc(OCC=CCN3CCN(C4c5ccccc5CCc5ccccc54)CC3)c2s1
20 | 188 to 190 | Cc1ccc(S(=O)(=O)N2CCn3c(c(C(N)=O)c(Cl)c3-c3ccccc3)C2)cc1
21 | 259 to 260 | CC(C)(C)C(=O)C1=C(O)C(=O)N(c2ccc(-c3ccon3)cc2)C1C1CCCCC1 (stereo not drawn)

Row | melting point [°C] | SMILES
22 | 146 to 148 | CC(C(O)c1ccc(OCc2ccccc2)c(OCc2ccccc2)c1)N1CCC(n2c(=O)[nH]c3ccccc32)CC1 (stereo not drawn)
23 | > 260 | CC(C)c1sc2ncnc(N)c2c1-c1ccc([N+](=O)[O-])cc1
24 | 80 to 83 | Cc1cc(Oc2ccc([N+](=O)[O-])c(F)c2)n[nH]1
25 | 75 to 76 | CCCCCCCCCCCCCCCCSCC(CNS(=O)(=O)CCCI)NC(C)=O (stereo not drawn)
26 | 296 to 297 | COc1cc2c(c([N+](=O)[O-])c1O)C(=O)c1ccccc1C2=O
27 | 87 to 88 | C#CCC(C(=CCl)c1cccnc1)c1ccc(Cl)cc1Cl (stereo not drawn)
28 | 135 to 136 | Cc1csc2ncc(C(O)CC(C)c3ccccc3)n12 (stereo not drawn)
29 | 43 | CCCCCCCCSc1ccc(-c2ncc(CCCCC)cn2)cc1
30 | 281 to 283 | O=C(O)c1nc2ccc(Oc3ccccc3)cc2cc1OCc1ccccc1
31 | 193 | O=C(O)CCc1cccc(-c2nc(=O)c3ccc(C(F)(F)F)cc3s2)n1
32 | 168 to 170 | CCC(=CC(CNC(=O)c1cnc2ccccc2c1)=NO)C(C)[N+](=O)[O-] (stereo not drawn)
33 | 99 to 100 | O=C(O)CCCCCCCc1cncc2ccccc12
34 | 87 to 88 | O=C(O)CCCOc1ccc(C2=CCCCCC2)cc1
35 | 208 to 210 | CCOCc1nc2c(N)nc3ccccc3c2n1CCCNS(C)(=O)=O
36 | 169 to 171 | CCOP(=O)(OCC)c1cccc2c(P(=O)(OCC)OCC)cccc12
37 | 190 to 191 | CC(C)c1cccc(C(C)C)c1NC(=O)CNC(c1ccccc1)c1cccc(C(=O)O)c1 (stereo not drawn)
38 | 124 to 126 | CO/N=C(/CNC(=O)c1cnc(OCC(F)(F)F)c(-c2ccc(Cl)c(Cl)c2)c1)C(F)(F)F
39 | 111 to 113 | CC(C)Oc1ccc(CCCOc2nn(Cc3ccccc3)cc2CC(=O)O)c(Oc2ncc(Cl)cc2Cl)c1
40 | 138 to 140 | O=C1CCCn2c1cc1ccccc12
41 | 157 to 160 | Fc1cccc(F)c1CCNC(=S)Nc1ccccn1
42 | 178 to 181 | CC[C@H](C)[C@H](NC(=O)/C=C1/c2ccccc2C(=S)N[C@H]1[C@@H](C)CC)C(=O)N[C@H](C(=O)OC)[C@@H](C)CC

The remaining lines, values behind:

Row | SMILES | melting point [°C]
43 | CON=C(c1nnn[nH]1)c1ccccc1COc1cc(C)ccc1C | 168 to 170
44 | Cc1ccc(S(=O)(=O)N(C)SSN(C)S(=O)(=O)c2ccc(C)cc2)cc1 | 90 to 94
45 | Cc1cc(C)nc(NC(=O)c2ccn3c2CSC3c2cccnc2)c1 (stereo not drawn) | 171
46 | Cn1nc(-c2ncc(Cl)cc2F)c(I)c1OC(F)F | 77 to 78
47 | O=C(O)c1cccc(Oc2cccc(C(F)(F)F)c2)n1 | 47 to 49
48 | CC1=C(C(=O)c2ccc(Br)cc2)C(=O)C2C(O)=CC=CC2C1=O (stereo not drawn) | 161 to 162
49 | O=C1N=C(NN2CCOCC2)SC1=Cc1cccc(-c2cc(F)c(O)c(C34CC5CC(CC(C5)C3)C4)c2)c1 | 304 to 309
50 | O=C1C=C(Nc2c(Br)cccc2Br)CCN1 | 240 to 243
51 | Cc1nc2n(c1CN(C)C)-c1ccc(Cl)cc1C(c1ccccc1Cl)=NC2 | 191 to 194
52 | COc1nc(NCCc2ccc(F)cc2)nc(-c2ccc(OC)c(S(=O)(=O)NC3CC3)c2)n1 | 200 to 201
53 | Nc1nc[nH]c(=O)c1O | > 300
54 | CCCN(Cc1ccc(-c2ccccc2-c2nc(=O)o[nH]2)cc1)c1nc(C)ncc1C(=O)OCC | 176 to 177
55 | COc1c(Cl)ccc(-c2nc(C(=O)NOC3CCCCO3)c(Cl)c(N)c2F)c1F (stereo not drawn) | 177 to 180
56 | O=C(Cn1nnnc1-c1ccccc1)OCCO | 54 to 55
57 | COC(=O)N[C@@H](Cc1ccccc1)[C@H](O)CN1C[C@H]2CCCC[C@H]2C[C@H]1C(=O)NOC(C)(C)C | 194 to 195
58 | CC1(C)C(=O)N(c2ccc(N)c(C(F)(F)F)c2)C(=O)N1CCCCCN1C(=O)N(c2ccc(N)c(C(F)(F)F)c2)C(=O)C1(C)C | 108 to 109
59 | Cc1nc2cc(CCCN3C(=O)c4ccccc4C3=O)ccc2s1 | 126
60 | O=C(CCC(=O)Oc1cc(O)cc(O)c1)Oc1cc(O)cc(O)c1 | 213 to 217
61 | COc1ccc(N2CCOCC2)c2sc(-c3nc4c([nH]3)CCN(C(=O)OC(C)(C)C)CC4)nc12 | 120

Row | SMILES | melting point [°C]
62 | CCOC(=O)/C=C/c1ccc(-c2ccc(O)c(C34CC5CC(CC(C5)C3)C4)c2)c(C)c1 | 193 to 195
63 | CSc1nn2c(N3CCN(Cc4ccccc4)CC3)cc(C)nc2c1S(=O)(=O)c1ccccc1 | 156 to 158
64 | O=C(O)C1CCC(c2ccc(Cl)cc2)n2c(=O)n(CCS)c(=O)n21 (stereo not drawn) | 189 to 190
65 | CCOC(=O)N1CCc2nc3cccc(Cl)c3c(C)c2CC1 | 138
66 | Fc1ccc(C23CNCC(CO2)O3)cc1 (stereo not drawn) | 89
67 | Cc1ncoc1-c1nc(-c2c(F)cccc2F)nn1C | 113 to 115
68 | O=C1NC(=O)C(N2C(=O)c3ccccc3C2=O)CC1c1ccccc1 (stereo not drawn) | 228 to 231
69 | O=S(=O)(Nc1ccc(Cl)nc1I)c1ccc2ncsc2c1 | 191
70 | COc1cccc(-c2ccc3cc(OC)ccc3c2Oc2ccc(C=O)cc2)c1 | 145 to 146
71 | CCOP(=O)(OCC)OC(=Cc1nccn1C)C(F)(F)F | 54 to 64
72 | N#Cc1cccn2cc(-c3ccc(C(=O)NCCC(=O)O)cc3)nc12 | 212 to 215
73 | C=CCOC(=O)N=C(OCC)N1Cc2ccccc2-c2ccccc2C1 | 76 to 77.5
74 | COc1ccc2[nH]c(C(=O)C34CC5CC(CC(C5)C3)C4)cc2c1 | 229 to 231
75 | COc1cccc2c1C13CCN(C)C(C2)C1(O)CCC(=O)C3 (stereo not drawn) | 191 to 193
76 | COC(=O)Cc1c(C(=O)OC)ccn1CCBr | 129 to 130
77 | Cc1ccc(C)n1-c1cc(F)cc(F)c1 | 55 to 56
78 | CC(C)(C)[C@@H](CO)NC(=O)[C@@H](CC(=O)O)n1ccc(-c2ccc(-c3ccc(C#N)cc3)cc2)c1 | 110 to 112
79 | O=C(N1CCNCC1)N1CCC(c2ccncc2)CC1 | 116 to 117
80 | COc1ccc(S(C)(=O)=O)cc1C=O | 140 to 143

Row | SMILES | melting point [°C]
81 | COc1ccc(-c2cc(-c3ccc(F)cc3)c3c(=O)n(C)c(=O)n(C)c3n2)cc1 | 240 to 243
82 | O=C1Nc2cc(CN3CC=C(c4ccc(Cl)cc4)CC3)cnc2N2CCC[C@@H]12 | 234 to 235
83 | Fc1c(F)c(F)c(CSc2nc3cnccc3[nH]2)c(F)c1F | 156 to 159
84 | O=C(O)CCSc1cccs1 | 110 to 112
85 | Cc1[nH]c2ccccc2c1C1=C(c2c(C)[nH]c3ccccc23)C(=O)NC1=O | 311 to 313
86 | CS(=O)(=O)c1ccc(-n2nc(C(F)(F)F)cc2-c2ccc(-c3ccco3)cc2F)cc1 | 223 to 225
87 | COc1ccc(/C=C/c2nc3c([nH]2)c(=O)n(C)c(=O)n3C)c(OC)c1 | > 280
88 | CON(C(=O)c1cn(C)nc1C(F)F)C(C)C1CC1c1ccc(Cl)cc1Cl (stereo not drawn) | 133 to 135
89 | CCCc1cccc(C(C)(C)C)c1O | 89 to 90
90 | CCN(CC1CCN(C(=O)NC)CC1)C(C)Cc1ccc(OC)cc1 (stereo not drawn) | 97 to 98
91 | O=C(NC1CCc2ccc([N+](=O)[O-])cc2C1)c1ccccc1 (stereo not drawn) | 194 to 198
92 | N#Cc1c(CNS(=O)(=O)c2c(F)cccc2F)nn(-c2ccc(Cl)cc2Cl)c1-c1ccc(O)cc1 | 196
93 | COC(=O)c1ccc([N+](=O)[O-])c([N+](=O)[O-])c1 | 85 to 86
94 | CCCOc1ncc(NS(=O)(=O)CC(=O)O)cc1-c1nc2c(CCC)nn(C)c2c(=O)[nH]1 | 267 to 270
95 | O=C(N[C@H]1CCCNC1=O)c1cc(F)ccc1F | 140 to 142
96 | CC(C)Oc1ccc(CCCO)c(OCc2ccc(Cl)cc2Cl)c1 | 75.5 to 76.5
97 | CCCCCC(CC(=O)OC)c1cc(C=O)c(OC)cc1OC (stereo not drawn) | 110 to 112
98 | Oc1ccc(Br)cc1-c1nc2ccccc2s1 | 164 to 165
